In the NIST ThermoML archive (doi:10.1016/j.jct.2010.03.002) one finds viscosity and mass density data, which are given here for 3 compounds.

Each structure is given as a SMILES string. Numbers after ± are expanded uncertainties.

For series [1] the following is noted: 101 kPa, Liquid; for viscosity: Capillary tube (Ostwald / Ubbelohde) method; for mass density: Vibrating tube method.
Series [2] is described as follows: xn = mol fraction of the nth substance listed. The settings on record: 101 kPa, Liquid, x1 = 1; for viscosity: Capillary tube (Ostwald / Ubbelohde) method; for mass density: Vibrating tube method.

By viscosity is commonly meant the resistance of a fluid to flow. As usually defined, the mass density is the mass of a sample divided by its volume. For the compound `CCCCCCn1cc[n+](C)c1.[Br-]` [3-hexyl-1-methyl-1H-imidazolium bromide], the viscosity in series [1] (293.15 K) is listed as 6936 ± 750 mPa·s; in series [1] (303.15 K), 2239 ± 200 mPa·s; in series [1] (313.15 K), 851.65 ± 56 mPa·s; in series [1] (323.15 K), 512.14 ± 27 mPa·s; in series [1] (333.15 K), 350.69 ± 16 mPa·s. For the same compound, the mass density in series [1] (293.15 K) turned out to be 1227.4 ± 1.7 kg/m3; in series [1] (303.15 K), 1220.1 ± 1.7 kg/m3; in series [1] (313.15 K), 1213.3 ± 1.7 kg/m3; in series [1] (323.15 K), 1205.7 ± 1.7 kg/m3; in series [1] (333.15 K), 1198.6 ± 1.6 kg/m3.

As for `O` [water], the viscosity in series [1] (293.15 K) is 1.304 ± 0.012 mPa·s; in series [1] (303.15 K), 1.002 ± 0.01 mPa·s; in series [1] (313.15 K), 0.653 ± 0.007 mPa·s; in series [1] (323.15 K) it was 0.544 ± 0.005 mPa·s; in series [1] (333.15 K) it was 0.467 ± 0.005 mPa·s. Besides, the mass density in series [1] (323.15 K) is given as 988 ± 0.1 kg/m3; in series [1] (333.15 K), 983.2 ± 0.1 kg/m3.

Consider `O` [water] + CCCCCCn1cc[n+](C)c1.[Br-], for which the viscosity in series [2] (293.15 K) is reported as 1.304 ± 0.012 mPa·s; in series [2] (303.15 K) it was 1.002 ± 0.01 mPa·s; in series [2] (313.15 K) it was 0.653 ± 0.007 mPa·s; in series [2] (323.15 K) it was 0.544 ± 0.005 mPa·s; in series [2] (333.15 K), 0.467 ± 0.005 mPa·s. Besides, the values for the mass density in series [2] (323.15 K) and in series [2] (333.15 K) were 988 ± 0.1 kg/m3 and 983.2 ± 0.1 kg/m3, respectively.
